Source: patent US6022901A, “Administration of resveratrol to prevent or treat restenosis following coronary intervention” (priority 1998, dated 2000)

system: low-density lipoproteins; assay: not given; conditions: cited from earlier work

Compound	protection of low-density lipoproteins against oxidation
Oc1cc(O)c2c(c1)OC(c1ccc(O)c(O)c1)C(O)C2 (stereo not drawn) [catechin, reference compound]	protect low-density lipoproteins against oxidation
O=c1c(O)c(-c2ccc(O)c(O)c2)oc2cc(O)cc(O)c12 [quercetin, reference compound]	protect low-density lipoproteins against oxidation
Oc1ccc(/C=C/c2cc(O)cc(O)c2)cc1 [trans-resveratrol]	protect low-density lipoproteins against oxidation
OC[C@H]1O[C@@H](Oc2cc(O)cc(/C=C/c3ccc(O)cc3)c2)[C@H](O)[C@@H](O)[C@@H]1O [trans-resveratrol glucoside]	protect low-density lipoproteins against oxidation
C[C@@H]1O[C@@H](OC[C@H]2O[C@@H](Oc3c(-c4ccc(O)c(O)c4)oc4cc(O)cc(O)c4c3=O)[C@H](O)[C@@H](O)[C@@H]2O)[C@H](O)[C@H](O)[C@H]1O [rutin, reference compound]	protect low-density lipoproteins against oxidation
OC[C@H]1O[C@@H](Oc2cc(O)cc(/C=C\c3ccc(O)cc3)c2)[C@H](O)[C@@H](O)[C@@H]1O [cis-resveratrol glucoside]	protect low-density lipoproteins against oxidation
Oc1ccc(/C=C\c2cc(O)cc(O)c2)cc1 [cis-resveratrol]	protect low-density lipoproteins against oxidation
Oc1cc(O)c2c(c1)O[C@H](c1ccc(O)c(O)c1)[C@H](O)C2 [epicatechin, reference compound]	protect low-density lipoproteins against oxidation

system: common iliac artery of high cholesteric rabbits; assay: Restenosis/thrombus model: balloon injury of common iliac artery in high cholesteric rabbits, local administration, angioscopy; format: in vivo, rabbit; conditions: after one month; trans-resveratrol + heparin (1:100) compared with heparin only, P<0.05
Experimental: The procedure of U.S. Pat. No. 5,595,974 to Tomaru may be used to evaluate the utility of trans-resveratrol in preventing restenosis in high cholestereric rabbits, as follows:
An injectable trans-resveratrol solution is prepared containing the following components: 10 mg trans-resveratrol; 3 mg chlorobutanol (preservative); 0.1 mg gelatin hydrolyzate (stabilizer); 9 mg sodium chloride (isotonic agent); and distilled water containing 2% dimethyl sulfoxide ("DMSO") for injection (to 1 mL).
Common iliac arteries of high cholesteric rabbits to which a diet containing 2% of cholesterol is loaded for a month are used as a model for restenosis, wherein the model consists of (1) a heparin group with seven male rabbits and (2) trans-resveratrol solution combined with th seven male rabbits, weighing between 2.5 kg and 3 kg, respectively. […]
Post-operatively, the percent luminal obstruction (%) of both the control side and the drug administered side are compared by continuing the load of high cholesterol for one month. That is, effects for preventing stenosis by local administration of trans-resveratrol is evaluated by angioscopic visualization after one month from vascular injury to compare the percent luminal obstruction (%) caused by intima pachymenia.
The percent luminal obstruction (%) is calculated by the following equation: […]

Compound	percent luminal obstruction (%)
Oc1ccc(/C=C/c2cc(O)cc(O)c2)cc1 [trans-resveratrol]	remarkably reduced percent luminal obstruction (%)
